Data from ChEMBL document CHEMBL4304811, “Development of a Water-Soluble Indolylmaleimide Derivative IM-93 Showing Dual Inhibition of Ferroptosis and NETosis” (ACS Med Chem Lett, 2019).
Calls of active or inactive are those of the source. The rule behind the calls is not given here.

Columns and labels:
[1] = target: Cyclin-dependent kinase 14 (Homo sapiens) (UniProt O94921); experiment: Binding affinity to wild-type human full length PFTK1 (M1 to H451 residues) expressed in bacterial expression system assessed as residual binding level at 10 uM by Kinomescan method relative to control
[2] = target: Hormonally up-regulated neu tumor-associated kinase (Homo sapiens) (UniProt P57058); experiment: Binding affinity to wild-type human partial length HUNK (A31 to K354 residues) expressed in bacterial expression system assessed as residual binding level at 10 uM by Kinomescan method relative to control
[3] = target: Serine/threonine-protein kinase DCLK2 (Homo sapiens) (UniProt Q8N568); experiment: Binding affinity to wild-type human partial length DCAMKL2 (K273 to V664 residues) expressed in bacterial expression system assessed as residual binding level at 10 uM by Kinomescan method relative to control
[4] = target: Mitogen-activated protein kinase kinase kinase 15 (Homo sapiens) (UniProt Q6ZN16); experiment: Binding affinity to wild-type human partial length MAP3K15 (T625 to L932 residues) expressed in mammalian expression system assessed as residual binding level at 10 uM by Kinomescan method relative to control
[5] = target: Protein-tyrosine kinase 6 (Homo sapiens) (UniProt Q13882); experiment: Binding affinity to wild-type human partial length BRK (L166 to T451 residues) expressed in bacterial expression system assessed as residual binding level at 10 uM by Kinomescan method relative to control
[6] = target: Cyclin-dependent kinase 8 (Homo sapiens) (UniProt P49336); experiment: Binding affinity to wild-type human partial length CDK8 (M1 to T360 residues) expressed in bacterial expression system assessed as residual binding level at 10 uM by Kinomescan method relative to control
[7] = target: Homeodomain-interacting protein kinase 4 (Homo sapiens) (UniProt Q8NE63); experiment: Binding affinity to wild-type human partial length HIPK4 (M1 to V384 residues) expressed in bacterial expression system assessed as residual binding level at 10 uM by Kinomescan method relative to control
[8] = system: Tyrosine-protein kinase ABL1 (Homo sapiens), P00519 [F317L]; experiment: Binding affinity to human non-phosphorylated ABL1 F317L mutant (S229 to K512 residues) expressed in mammalian expression system assessed as residual binding level at 10 uM by Kinomescan method relative to control
[9] = target: Activin receptor type-1B (Homo sapiens) (UniProt P36896); experiment: Binding affinity to wild-type human ACVR1B (S187 to I505 residues) expressed in bacterial expression system assessed as residual binding level at 10 uM by Kinomescan method relative to control
[10] = target: Serine/threonine-protein kinase 32B (Homo sapiens) (UniProt Q9NY57); experiment: Binding affinity to wild-type human full length YANK2 (M1 to S414 residues) expressed in bacterial expression system assessed as residual binding level at 10 uM by Kinomescan method relative to control
[11] = target: Atypical kinase COQ8A, mitochondrial (Homo sapiens) (UniProt Q8NI60); experiment: Binding affinity to wild-type human full length ADCK3 (M280 to Q647 residues) expressed in bacterial expression system assessed as residual binding level at 10 uM by Kinomescan method relative to control
[12] = target: Platelet-derived growth factor receptor alpha (Homo sapiens) (UniProt P16234); experiment: Binding affinity to wild-type human partial length PDGFRA (V575 to D1002 residues) expressed in mammalian expression system assessed as residual binding level at 10 uM by Kinomescan method relative to control
[13] = system: Tyrosine-protein kinase ABL1 (Homo sapiens), P00519 [F317L]; experiment: Binding affinity to human phosphorylated ABL1 F317L mutant (S229 to K512 residues) expressed in mammalian expression system assessed as residual binding level at 10 uM by Kinomescan method relative to control
[14] = target: Serine/threonine-protein kinase Sgk2 (Homo sapiens) (UniProt Q9HBY8); experiment: Binding affinity to wild-type human partial length SGK2 (L54 to C427 residues) expressed in mammalian expression system assessed as residual binding level at 10 uM by Kinomescan method relative to control
Neutrophil = experiment: Inhibition of PMA-induced NETosis in human neutrophils at 25 uM preincubated for 30 mins followed by PMA stimulation and measured after 3 hrs by Hoechst […] staining based fluorescence microscopic analysis; format: functional, cell-based
[15] = target: Death-associated protein kinase 1 (Homo sapiens) (UniProt P53355); experiment: Binding affinity to wild-type human partial length DAPK1 (M1 to F296 residues) expressed in bacterial expression system assessed as residual binding level at 10 uM by Kinomescan method relative to control
[16] = system: Mast/stem cell growth factor receptor Kit (Homo sapiens), P10721 [V559D,T670I]; experiment: Binding affinity to human partial length KIT V559D/T670I double mutant (Y545 to D952 residues) expressed in bacterial expression system assessed as residual binding level at 10 uM by Kinomescan method relative to control
[17] = target: Tyrosine-protein kinase ITK/TSK (Homo sapiens) (UniProt Q08881); experiment: Binding affinity to wild-type human partial length ITK (R335 to L620 residues) expressed in bacterial expression system assessed as residual binding level at 10 uM by Kinomescan method relative to control
[18] = target: Serine/threonine-protein kinase haspin (Homo sapiens) (UniProt Q8TF76); experiment: Binding affinity to wild-type human partial length HASPIN (I452 to K798 residues) expressed in mammalian expression system assessed as residual binding level at 10 uM by Kinomescan method relative to control
[19] = target: Dual specificity protein kinase CLK4 (Homo sapiens) (UniProt Q9HAZ1); experiment: Binding affinity to wild-type human partial length CLK4 (R135 to K481 residues) expressed in bacterial expression system assessed as residual binding level at 10 uM by Kinomescan method relative to control
[20] = target: Receptor tyrosine-protein kinase erbB-2 (Homo sapiens) (UniProt P04626); experiment: Binding affinity to wild-type human partial length ERBB2 (K646 to V1225 residues) expressed in mammalian expression system assessed as residual binding level at 10 uM by Kinomescan method relative to control
[21] = target: Phosphatidylinositol 4-kinase beta (Homo sapiens) (UniProt Q9UBF8); experiment: Binding affinity to wild-type human full length PIK4CB (M1 to M828 residues) expressed in mammalian expression system assessed as residual binding level at 10 uM by Kinomescan method relative to control
[22] = target: Insulin receptor (Homo sapiens) (UniProt P06213); experiment: Binding affinity to wild-type human partial length INSR (P997 to E1318 residues) expressed in mammalian expression system assessed as residual binding level at 10 uM by Kinomescan method relative to control
[23] = target: Tyrosine-protein kinase CSK (Homo sapiens) (UniProt P41240); experiment: Binding affinity to wild-type human full length CSK (M1 to L450 residues) expressed in bacterial expression system assessed as residual binding level at 10 uM by Kinomescan method relative to control
[24] = target: Ribosomal protein S6 kinase alpha-6 (Homo sapiens) (UniProt Q9UK32); experiment: Binding affinity to wild-type human partial length C-terminal RSK4 kinase domain 2 (I401 to Y711 residues) expressed in bacterial expression system assessed as residual binding level at 10 uM by Kinomescan method relative to control

Chain of Tyrosine-protein kinase ABL1 (Homo sapiens), P00519 [F317L] (P00519 whole entry F317L, the tested form may be a part): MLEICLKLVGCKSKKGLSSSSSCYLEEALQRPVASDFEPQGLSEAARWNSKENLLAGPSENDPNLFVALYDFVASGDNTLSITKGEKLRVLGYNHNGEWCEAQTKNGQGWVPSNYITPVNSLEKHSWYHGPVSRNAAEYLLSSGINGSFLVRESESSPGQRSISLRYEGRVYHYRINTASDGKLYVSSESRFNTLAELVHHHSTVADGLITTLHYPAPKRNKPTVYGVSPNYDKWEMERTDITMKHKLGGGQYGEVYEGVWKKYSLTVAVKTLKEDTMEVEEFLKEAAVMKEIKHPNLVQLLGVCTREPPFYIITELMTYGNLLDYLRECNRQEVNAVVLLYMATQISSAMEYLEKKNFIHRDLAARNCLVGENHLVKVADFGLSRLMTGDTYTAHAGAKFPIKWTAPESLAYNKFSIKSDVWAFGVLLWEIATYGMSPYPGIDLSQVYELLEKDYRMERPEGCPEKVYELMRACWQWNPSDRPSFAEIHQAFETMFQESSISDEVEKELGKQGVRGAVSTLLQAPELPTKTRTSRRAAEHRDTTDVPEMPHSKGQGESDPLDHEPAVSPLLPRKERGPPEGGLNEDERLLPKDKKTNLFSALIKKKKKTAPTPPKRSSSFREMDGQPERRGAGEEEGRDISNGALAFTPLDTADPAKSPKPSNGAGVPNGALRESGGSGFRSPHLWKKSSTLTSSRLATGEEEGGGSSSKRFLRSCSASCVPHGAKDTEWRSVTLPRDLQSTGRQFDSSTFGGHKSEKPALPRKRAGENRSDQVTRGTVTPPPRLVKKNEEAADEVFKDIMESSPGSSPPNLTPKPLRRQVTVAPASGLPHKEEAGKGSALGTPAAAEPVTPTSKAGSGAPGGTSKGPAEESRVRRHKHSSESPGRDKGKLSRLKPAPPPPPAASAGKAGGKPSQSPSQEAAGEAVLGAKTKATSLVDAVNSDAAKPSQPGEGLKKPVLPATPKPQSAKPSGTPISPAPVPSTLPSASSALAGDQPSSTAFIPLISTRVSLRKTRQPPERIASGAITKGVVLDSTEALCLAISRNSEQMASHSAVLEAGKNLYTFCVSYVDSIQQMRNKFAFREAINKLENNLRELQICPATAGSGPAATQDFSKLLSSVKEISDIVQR
Chain of Cyclin-dependent kinase 14 (Homo sapiens) (O94921 whole entry, the tested form may be a part): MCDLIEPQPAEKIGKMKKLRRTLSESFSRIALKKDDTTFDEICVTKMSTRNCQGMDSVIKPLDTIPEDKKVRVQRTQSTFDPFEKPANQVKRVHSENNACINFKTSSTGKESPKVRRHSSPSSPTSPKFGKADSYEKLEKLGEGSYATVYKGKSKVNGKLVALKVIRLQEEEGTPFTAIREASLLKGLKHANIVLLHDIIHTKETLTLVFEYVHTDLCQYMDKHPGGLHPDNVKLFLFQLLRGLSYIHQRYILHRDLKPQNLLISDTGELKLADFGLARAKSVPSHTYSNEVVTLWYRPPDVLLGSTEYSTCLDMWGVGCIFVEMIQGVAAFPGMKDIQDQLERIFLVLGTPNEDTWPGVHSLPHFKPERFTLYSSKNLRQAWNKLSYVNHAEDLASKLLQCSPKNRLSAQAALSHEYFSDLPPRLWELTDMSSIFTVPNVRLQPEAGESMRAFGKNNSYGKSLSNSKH
Chain of Mast/stem cell growth factor receptor Kit (Homo sapiens), P10721 [V559D,T670I] (P10721 whole entry V559D/T670I, the tested form may be a part): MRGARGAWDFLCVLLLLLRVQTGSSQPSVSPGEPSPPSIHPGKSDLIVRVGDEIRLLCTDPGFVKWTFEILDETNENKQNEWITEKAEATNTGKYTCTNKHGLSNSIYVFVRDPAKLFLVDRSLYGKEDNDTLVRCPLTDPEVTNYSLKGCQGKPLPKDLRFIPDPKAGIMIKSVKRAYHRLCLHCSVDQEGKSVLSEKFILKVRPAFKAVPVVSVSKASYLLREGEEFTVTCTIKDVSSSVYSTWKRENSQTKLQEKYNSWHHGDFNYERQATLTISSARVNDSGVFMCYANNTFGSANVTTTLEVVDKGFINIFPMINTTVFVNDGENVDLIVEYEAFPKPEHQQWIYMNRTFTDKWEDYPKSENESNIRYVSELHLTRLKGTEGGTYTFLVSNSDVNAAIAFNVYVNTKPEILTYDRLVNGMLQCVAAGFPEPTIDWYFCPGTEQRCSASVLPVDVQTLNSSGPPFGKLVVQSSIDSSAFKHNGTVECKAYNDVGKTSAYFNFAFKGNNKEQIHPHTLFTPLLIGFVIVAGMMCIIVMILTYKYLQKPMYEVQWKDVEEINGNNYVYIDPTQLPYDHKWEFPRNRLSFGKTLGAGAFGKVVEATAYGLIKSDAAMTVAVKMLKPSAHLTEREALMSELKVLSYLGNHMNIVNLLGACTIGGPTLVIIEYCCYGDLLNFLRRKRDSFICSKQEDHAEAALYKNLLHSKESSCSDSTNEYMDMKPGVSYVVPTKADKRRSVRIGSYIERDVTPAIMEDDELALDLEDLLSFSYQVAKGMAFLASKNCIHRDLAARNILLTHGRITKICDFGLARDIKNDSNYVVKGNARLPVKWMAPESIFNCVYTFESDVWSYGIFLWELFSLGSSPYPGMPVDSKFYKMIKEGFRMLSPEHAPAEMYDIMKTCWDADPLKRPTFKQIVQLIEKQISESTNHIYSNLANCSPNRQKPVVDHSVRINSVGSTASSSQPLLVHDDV
Chain of Dual specificity protein kinase CLK4 (Homo sapiens) (Q9HAZ1 whole entry, looked up, the tested form may be a part): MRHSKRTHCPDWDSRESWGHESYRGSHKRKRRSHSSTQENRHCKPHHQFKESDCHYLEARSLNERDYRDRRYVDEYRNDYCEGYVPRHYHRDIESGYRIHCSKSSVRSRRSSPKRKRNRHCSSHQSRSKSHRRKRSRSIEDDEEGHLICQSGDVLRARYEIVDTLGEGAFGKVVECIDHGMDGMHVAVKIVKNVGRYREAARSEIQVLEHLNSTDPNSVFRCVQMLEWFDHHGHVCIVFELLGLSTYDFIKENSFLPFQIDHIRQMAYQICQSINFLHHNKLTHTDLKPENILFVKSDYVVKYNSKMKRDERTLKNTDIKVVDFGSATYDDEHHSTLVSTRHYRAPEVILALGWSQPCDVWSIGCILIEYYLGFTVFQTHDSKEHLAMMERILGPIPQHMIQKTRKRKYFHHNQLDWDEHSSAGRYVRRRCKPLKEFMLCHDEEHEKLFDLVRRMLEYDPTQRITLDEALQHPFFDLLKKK
Chain of Homeodomain-interacting protein kinase 4 (Homo sapiens) (Q8NE63 whole entry, the tested form may be a part): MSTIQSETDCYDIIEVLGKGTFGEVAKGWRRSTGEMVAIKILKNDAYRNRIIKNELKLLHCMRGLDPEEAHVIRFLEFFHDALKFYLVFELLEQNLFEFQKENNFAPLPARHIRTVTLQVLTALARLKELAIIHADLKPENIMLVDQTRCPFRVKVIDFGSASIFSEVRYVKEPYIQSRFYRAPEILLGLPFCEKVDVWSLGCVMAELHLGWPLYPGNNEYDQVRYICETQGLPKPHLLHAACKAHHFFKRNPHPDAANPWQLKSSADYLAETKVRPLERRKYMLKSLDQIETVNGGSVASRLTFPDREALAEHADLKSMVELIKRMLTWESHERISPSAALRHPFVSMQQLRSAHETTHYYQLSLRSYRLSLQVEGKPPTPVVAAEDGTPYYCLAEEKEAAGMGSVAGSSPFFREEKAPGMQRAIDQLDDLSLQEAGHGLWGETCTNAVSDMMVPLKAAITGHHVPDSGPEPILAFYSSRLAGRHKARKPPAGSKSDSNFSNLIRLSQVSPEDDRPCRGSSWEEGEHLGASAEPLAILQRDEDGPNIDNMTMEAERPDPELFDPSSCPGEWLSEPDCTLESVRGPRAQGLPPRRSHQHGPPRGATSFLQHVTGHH
Chain of Serine/threonine-protein kinase haspin (Homo sapiens) (Q8TF76 whole entry, the tested form may be a part): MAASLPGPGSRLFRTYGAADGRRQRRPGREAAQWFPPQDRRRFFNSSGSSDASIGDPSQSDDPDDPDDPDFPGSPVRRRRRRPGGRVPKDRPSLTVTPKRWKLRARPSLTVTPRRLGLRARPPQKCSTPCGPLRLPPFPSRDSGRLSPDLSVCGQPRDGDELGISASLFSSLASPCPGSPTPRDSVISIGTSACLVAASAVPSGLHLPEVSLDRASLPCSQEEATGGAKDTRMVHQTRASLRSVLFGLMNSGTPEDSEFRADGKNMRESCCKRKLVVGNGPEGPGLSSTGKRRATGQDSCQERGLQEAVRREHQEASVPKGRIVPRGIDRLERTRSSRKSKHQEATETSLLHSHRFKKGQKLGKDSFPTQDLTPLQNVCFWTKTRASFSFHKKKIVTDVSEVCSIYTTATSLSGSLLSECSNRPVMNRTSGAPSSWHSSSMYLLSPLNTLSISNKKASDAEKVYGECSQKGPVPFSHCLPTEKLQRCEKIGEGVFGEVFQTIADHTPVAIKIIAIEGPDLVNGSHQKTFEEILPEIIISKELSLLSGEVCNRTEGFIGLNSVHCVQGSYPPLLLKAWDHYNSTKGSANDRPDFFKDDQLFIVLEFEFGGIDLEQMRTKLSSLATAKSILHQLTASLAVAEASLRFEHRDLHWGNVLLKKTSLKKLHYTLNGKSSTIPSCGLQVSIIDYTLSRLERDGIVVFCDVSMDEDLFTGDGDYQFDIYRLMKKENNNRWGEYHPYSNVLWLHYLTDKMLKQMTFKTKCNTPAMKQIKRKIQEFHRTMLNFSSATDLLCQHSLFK
Chain of Activin receptor type-1B (Homo sapiens) (P36896 whole entry, the tested form may be a part): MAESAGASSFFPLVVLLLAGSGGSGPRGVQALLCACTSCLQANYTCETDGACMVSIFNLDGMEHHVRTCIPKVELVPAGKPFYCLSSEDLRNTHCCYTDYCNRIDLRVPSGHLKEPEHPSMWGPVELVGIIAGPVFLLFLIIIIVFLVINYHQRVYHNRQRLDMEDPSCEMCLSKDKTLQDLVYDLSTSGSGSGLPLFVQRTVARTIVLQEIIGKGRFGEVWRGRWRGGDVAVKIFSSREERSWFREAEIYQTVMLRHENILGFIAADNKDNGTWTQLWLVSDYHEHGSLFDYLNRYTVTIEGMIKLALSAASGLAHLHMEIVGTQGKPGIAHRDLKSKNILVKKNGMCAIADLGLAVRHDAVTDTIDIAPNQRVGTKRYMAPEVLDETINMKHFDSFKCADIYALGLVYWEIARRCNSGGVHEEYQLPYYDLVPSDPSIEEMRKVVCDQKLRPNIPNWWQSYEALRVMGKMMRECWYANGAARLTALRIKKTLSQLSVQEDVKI

SMILES: CC(C)N1C(=O)C(NCCCN(C)C)=C(c2cn(C)c3ccccc23)C1=O.Cl
- Activity [1]: 100%
- Activity [2]: 100%
- Activity [3]: 94%
- Activity [4]: 94%
- Activity [5]: 100%
- Activity [6]: 100%
- Activity [7]: 84%
- Activity [8]: 84%
- Activity [9]: 88%
- Activity [10]: 99%
- Activity [11]: 91%
- Activity [12]: 86%
- Activity [13]: 83%
- Activity [14]: 82%
- inhibition (Neutrophil): Active
- Activity [15]: 100%
- Activity [16]: 100%
- Activity [17]: 100%
- Activity [18]: 100%
- Activity [19]: 95%
- Activity [20]: 92%
- Activity [21]: 85%
- Activity [22]: 100%
- Activity [23]: 96%
- Activity [24]: 100%
